Experimental data: publication PMC5354587, “Ergosterone-coupled Triazol molecules trigger mitochondrial dysfunction, oxidative stress, and acidocalcisomal Ca^2+ release in Leishmania mexicana promastigotes” (Microbial Cell, 2015)

Legend:
Format in all cases: cell-based
[1] = tested on: Leishmania mexicana promastigotes; experiment: DNA content analysis with propidium iodide (cell cycle, SubG1); conditions: 1.4 μM Erg-GTr or 2.3 μM Erg-GTr2, 48 hours
Description: In order to analyze if Erg-GTr molecules influence the normal cell cycle distribution, the DNA content of treated cells was evaluated using propidium iodide.
Figure 4 FIGURE 4: Analysis of the DNA content in L. mexicana promastigotes. Treated (1.4 μM Erg-GTr or 2.3 μM Erg-GTr2) or control cells (DMSO) were harvested at different time points and prepared for determination of DNA content. Acquisition was performed in arithmetic scale to obtain G1 and G2/M peaks and in logarithmic scale to earn the subG1 peak. (A) Percentage of cells in the different phases of the cell cycle after 24 and 48 hours treatment. (B) SubG1 peak in percentage after 16, 24 and 48 hours drug contact. Quantification was carried out using the WinMDI software. The bars represent the mean+/-S.D. of three individual cultures measured at each time point.
Propidium iodide was used to determinate the DNA content in parasites after treatment. 1 x 10^6 parasites were washed with PBS and resuspended in 100 μL lysis buffer (7.7 mM Na2HPO4, 2.3 mM KH2PO4) containing 6 μM digitonin. Samples were incubated at 4°C for 30 minutes. Finally, 400 μL staining buffer (20 μg/mL propidium iodide in PBS) was added to each sample. Samples were kept on ice in the dark until their analysis in the cytometer (Beckman Coulter).

[2] = tested on: Leishmania mexicana promastigotes; experiment: Cytoplasmic Ca2+ level measurement with Fura 2-AM; conditions: Erg-GTr 1.4 μM or Erg-GTr2 2.3 μM; same result with extracellular Ca2+ sequestered by EGTA
Text: In order to evaluate the possible effect of Erg-GTr and Erg-GTr2 on the cytoplasmic Ca^2+ concentration ([Ca^2+]cyt) in L. mexicana promastigotes, parasites were loaded with fura 2-AM, a fluorimetric Ca^2+ indicator which allows the measurement of intracellular changes in its concentration. Figure 7A represents the relative [Ca^2+]cyt, indicated as normalized OD340/380 ratio.
The fluorescent ratiometric Ca^2+ indicator Fura 2-AM was used to analyze intracellular Ca^2+ concentration. Promastigotes from stationary phase cultures were washed twice with PBS containing 1% glucose and incubated for 3 hours at 29°C with 4 μM Fura 2-AM, […], and 0.05% pluronic acid. Thereafter, parasites were washed twice, resuspended, and placed in a stirred quartz cuvette at 29°C. Fluorescence (ex 340 nm/380 nm and em 510 nm) was registered in a Hitachi F-7000 Spectrofluorimeter. Digitonin and EGTA were used to obtain the maximum and minimum [Ca^2+] in the sample, respectively.

human dermic fibroblasts = experiment: Half-inhibitory concentration on human fibroblasts, modified MTT method; conditions: Fibroblast, 72 hours
Description: (§1) Promastigotes of Leishmania mexicana Bel 21 strain were cultured at 26°C in Liver Infusion Tryptone (LIT) medium supplemented with 10% fetal bovine serum (Internegocios). Primary cultures of human dermic fibroblasts were performed at 37°C in DMEN medium (Sigma) supplemented with 10% fetal bovine serum in a CO2 incubator at 5% CO2.
(§2) To determine the IC50 in parasites and human fibroblasts the protocol described by was followed. Briefly, a suspension of 2 x 10^6 parasites per mL^-1 or 5 x 10^3 fibroblasts per well were transferred into 96 well plates and different concentrations of the compounds were added. Plates were incubated under the corresponding culture conditions for 48 or 72 hours for L. mexicana or human fibroblasts, respectively. Thereafter, parasites plates were centrifuged prior to the elimination of the supernatant. Cell viability was measured by the modified MTT method, where cells were incubated with the MTT substrate at 0.2 mg x mL^-1 for 4 hours. Colored crystals formed were solubilized in DMSO and absorbance was measured at 570 nm. IC50 was obtained from a dose response curve using the software OriginLab Pro 6.0^©.

[3] = tested on: Leishmania mexicana promastigotes; experiment: Annexin V-AlexaFluor488/propidium iodide double staining, flow cytometry; conditions: Erg-GTr 1.4 μM or Erg-GTr2 2.3 μM
Description: The effect of Erg-GTr and Erg-GTr2 was further analyzed to determine the cell death mechanism. Asymmetry of the plasma membrane is loosed when cell death processes are activated. The Annexin V-AlexaFluor488/propidium iodide double staining was used to detect phosphatidylserine (PS) in the outer leaflet of the plasma membrane using flow cytometry after parasite treatment. Cells were incubated for 24 and 48 hours with Erg-GTr (1.4 μM) or Erg-GTr2 (2.3 μM). […] At this time, the integrity of the plasma membrane was still intact, as evidenced by a low PI staining (5% or lower). After 48 hours, the percentage of Annexin V positive cells increased to reach more than 60% (Erg-GTr) or was maintained at around 40% in the case of Erg-GTr2 (Figure 2B). […] This phenomenon has been reported as a criterium of the late stage of cell death processes.
The annexin V-AlexaFluor 488 (Invitrogen) was used following the manufacture recommendations. Briefly, 1 x 10^6 parasites were washed with PBS and incubated with annexin V and propidium iodide (0.05 mg x mL^-1) in 100 μL binding buffer for 15 minutes. Final volume was adjusted at 500 μL and samples were immediately analyzed in a Beckman Coulter Gallios Cytometer.

[4] = tested on: Leishmania mexicana promastigotes; experiment: Half-inhibitory concentration on parasites, modified MTT method
Description: Parasites were treated with different concentrations of the synthesized compounds for 48 hours to determine their cytotoxic effect. A dose dependent growth inhibition was observed after this time.
as §1, §2

SMILES: CC(C)C(C)C=CC(C)C1CCC2C3=CC(=NNC(=O)n4cnnc4)C4(O)CC(=O)CCC4(C)C3CCC21C (stereo not drawn) [Erg-GTr, [1,2,4]triazole-4-carboxylic acid [5-hydroxy-10,13-dimethyl-3-oxo-17-(1,4,5-trimethyl-hex-2-enyl)-1,2,3,4,5,9,10,11,12,13,14,15,16,17-tetradecahydro-cyclopenta[a]phenanthren-6-ylidene]-hydrazide]
- cell cycle arrest in the G2/M phase [1]: moderate
- effect on cytoplasmic Ca2+ concentration ([Ca2+]cyt) [2]: rapid increase
- IC50 (human dermic fibroblasts): 13.7 ± 1.9 µM
- PI staining ([3]; 24 hours): ≤ 5%
- PS exposure, percentage of the cell population ([3]; 24 hours): 40.2%
- PI positive cells ([3]; 48 hours): 31%
- percentage of Annexin V positive cells ([3]; 48 hours): more than 60%
- IC50 ([4]; Leishmania mexicana, 48 h, read-out: IC50 on L. mexicana promastigotes): 1400 ± 400 nM
- Selectivity index ([4]; promastigotes compared to human dermic fibroblasts): 9.8
